{"source": "paper PMC5951806", "about": "“Rapid labelling and covalent inhibition of intracellular native proteins using ligand-directed N-acyl-N-alkyl sulfonamide” (Nature Communications, 2018)", "experiment_in_all_cases": "TMT LC-MSMS of 11-labelled proteins", "type_in_all_cases": "cell-based", "key": {"[1]": {"biological_target": "T1, Carnitine O-palmitoyltransferase 1, liver isoform (CPT1A) (Homo sapiens, UniProt P50416)", "T1 sequence (P50416 1-773)": "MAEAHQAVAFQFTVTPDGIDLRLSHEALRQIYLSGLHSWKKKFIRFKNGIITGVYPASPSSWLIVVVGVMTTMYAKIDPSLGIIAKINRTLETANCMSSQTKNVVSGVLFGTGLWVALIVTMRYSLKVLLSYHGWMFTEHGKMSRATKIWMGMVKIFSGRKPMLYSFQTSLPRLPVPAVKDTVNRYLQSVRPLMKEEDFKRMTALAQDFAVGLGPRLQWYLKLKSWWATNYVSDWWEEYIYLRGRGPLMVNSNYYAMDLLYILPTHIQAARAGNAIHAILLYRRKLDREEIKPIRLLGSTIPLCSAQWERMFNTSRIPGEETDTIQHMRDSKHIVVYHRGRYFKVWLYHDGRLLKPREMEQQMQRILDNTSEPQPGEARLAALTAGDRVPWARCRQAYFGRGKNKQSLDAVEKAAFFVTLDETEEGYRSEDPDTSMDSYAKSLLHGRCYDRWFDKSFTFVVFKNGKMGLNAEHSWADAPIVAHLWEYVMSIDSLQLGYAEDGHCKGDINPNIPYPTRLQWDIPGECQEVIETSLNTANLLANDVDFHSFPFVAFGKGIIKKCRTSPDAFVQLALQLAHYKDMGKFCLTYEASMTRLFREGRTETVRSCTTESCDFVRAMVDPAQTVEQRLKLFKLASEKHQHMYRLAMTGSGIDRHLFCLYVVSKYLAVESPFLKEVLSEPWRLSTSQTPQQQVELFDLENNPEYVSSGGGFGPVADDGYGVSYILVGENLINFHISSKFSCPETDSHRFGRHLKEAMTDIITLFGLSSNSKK"}, "[2]": {"biological_target": "Cytochrome b-c1 complex subunit 1, mitochondrial (UQCRC1) (Homo sapiens, UniProt P31930)"}, "[3]": {"biological_target": "Pyruvate kinase PKM (PKM) (Homo sapiens, UniProt P14618)", "sequence (P14618 whole entry)": "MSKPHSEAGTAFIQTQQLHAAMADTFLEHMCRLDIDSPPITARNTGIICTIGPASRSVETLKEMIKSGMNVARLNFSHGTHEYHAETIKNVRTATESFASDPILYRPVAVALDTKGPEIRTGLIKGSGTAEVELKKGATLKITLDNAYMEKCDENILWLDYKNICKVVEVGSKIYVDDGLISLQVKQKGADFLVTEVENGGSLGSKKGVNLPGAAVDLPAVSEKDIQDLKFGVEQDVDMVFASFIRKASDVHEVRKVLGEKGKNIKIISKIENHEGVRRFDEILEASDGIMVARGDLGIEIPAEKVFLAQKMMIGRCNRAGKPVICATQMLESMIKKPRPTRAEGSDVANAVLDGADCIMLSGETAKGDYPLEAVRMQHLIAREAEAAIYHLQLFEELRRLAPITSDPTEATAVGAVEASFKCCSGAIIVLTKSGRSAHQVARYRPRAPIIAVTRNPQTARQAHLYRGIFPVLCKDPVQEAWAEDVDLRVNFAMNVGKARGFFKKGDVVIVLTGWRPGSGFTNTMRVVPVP"}, "[4]": {"conditions": "sheet Exp1, SKBR3 cells, 11 0.5 µM 3 h vs DMSO"}, "[5]": {"conditions": "sheet Exp1, SKBR3 cells, 11 0.5 µM 3 h vs with PU-H71 10 µM"}, "[6]": {"conditions": "sheet Merged, SKBR3 cells, 11 0.5 µM 3 h vs DMSO"}, "[7]": {"conditions": "sheet Merged, SKBR3 cells, 11 0.5 µM 3 h vs with PU-H71 10 µM"}}, "data": [{"smiles": "CC(=O)Oc1ccc2c(c1)Oc1cc(OC(C)=O)ccc1C21OC(=O)c2cc(C(=O)NCCOCCOCCNC(=O)CCCC(=O)N(CC#N)S(=O)(=O)c3ccc(C(=O)NCCCn4c(Sc5cc6c(cc5I)OCO6)nc5c(N)ncnc54)cc3)ccc21", "note": "[compound 11]", "values": [{"measurement": "Abundance Ratio: (11) / (11 with PU-H71)", "setting": "[1]; Exp3, CPT1A", "result": 0.719}, {"measurement": "Abundance Ratio: (11) / (DMSO)", "setting": "[1]; Exp3, CPT1A", "result": 1.338}, {"measurement": "Abundances (Grouped): 11", "setting": "[1]; Exp3, CPT1A", "result": 20.2}, {"measurement": "Abundances (Grouped): 11 with PU-H71", "setting": "[1]; Exp3, CPT1A, with PU-H71", "result": 28.1}, {"measurement": "Abundance Ratio: (11) / (DMSO)", "setting": "[1]; [4]", "result": 2.506}, {"measurement": "Abundance Ratio: (11) / (11 with PU-H71)", "setting": "[1]; [5]", "result": 0.783}, {"measurement": "Abundance Ratio: (11) / (DMSO)", "setting": "[1]; [6]", "result": 1.461}, {"measurement": "Abundance Ratio: (11) / (11 with PU-H71)", "setting": "[1]; [7]", "result": 0.79}, {"measurement": "Abundance Ratio: (11) / (11 with PU-H71)", "setting": "[2]; Exp3, UQCRC1", "result": 0.7}, {"measurement": "Abundance Ratio: (11) / (DMSO)", "setting": "[2]; Exp3, UQCRC1", "result": 3}, {"measurement": "Abundances (Grouped): 11", "setting": "[2]; Exp3, UQCRC1", "result": 50.1}, {"measurement": "Abundances (Grouped): 11 with PU-H71", "setting": "[2]; Exp3, UQCRC1", "result": 71.6}, {"measurement": "Abundance Ratio: (11) / (11 with PU-H71)", "setting": "[2]; sheet Exp2, UQCRC1", "result": 0.772}, {"measurement": "Abundance Ratio: (11) / (DMSO)", "setting": "[2]; sheet Exp2, UQCRC1", "result": 3.724}, {"measurement": "Abundances (Grouped): 11", "setting": "[2]; sheet Exp2, UQCRC1", "result": 60.7}, {"measurement": "Abundances (Grouped): 11 with PU-H71", "setting": "[2]; sheet Exp2, UQCRC1", "result": 78.6}, {"measurement": "Abundance Ratio: (11) / (DMSO)", "setting": "[2]; [6]", "result": 3.342}, {"measurement": "Abundance Ratio: (11) / (11 with PU-H71)", "setting": "[2]; [7]", "result": 0.735}, {"measurement": "Abundance Ratio: (11) / (11 with PU-H71)", "setting": "[3]; Exp3, PKM", "result": 1.148}, {"measurement": "Abundance Ratio: (11) / (DMSO)", "setting": "[3]; Exp3, PKM", "result": 2.441}, {"measurement": "Abundances (Grouped): 11", "setting": "[3]; Exp3, PKM", "result": 100.1}, {"measurement": "Abundances (Grouped): 11 with PU-H71", "setting": "[3]; Exp3, PKM", "result": 87.2}, {"measurement": "Abundance Ratio: (11) / (DMSO)", "setting": "[3]; [4]", "result": 3.506}, {"measurement": "Abundance Ratio: (11) / (11 with PU-H71)", "setting": "[3]; [5]", "result": 0.917}, {"measurement": "Abundance Ratio: (11) / (11 with PU-H71)", "setting": "[3]; sheet Exp2, PKM", "result": 0.916}, {"measurement": "Abundance Ratio: (11) / (DMSO)", "setting": "[3]; sheet Exp2, PKM", "result": 2.005}, {"measurement": "Abundances (Grouped): 11", "setting": "[3]; sheet Exp2, PKM", "result": 121.5}, {"measurement": "Abundances (Grouped): 11 with PU-H71", "setting": "[3]; sheet Exp2, PKM", "result": 132.6}, {"measurement": "Abundance Ratio: (11) / (DMSO)", "setting": "[3]; [6]", "result": 3.4}, {"measurement": "Abundance Ratio: (11) / (11 with PU-H71)", "setting": "[3]; [7]", "result": 0.922}]}]}
